Experimental data published in patent publication US6534542B2, “(2-hydroxy)ethyl-thioureas useful as modulators of α2B adrenergic receptors” (Allergen Sales, Inc., priority 2001, dated 2003).

molecular target: T1, alpha2B receptor (Homo sapiens, UniProt P18089); assay: Receptor Selection and Amplification Technology (RSAT) assay, alpha2B; type: cell-based; conditions: NIH-3T3 cells; NA = not active at concentrations less than 10 micromolar; read-out: RSAT EC50 (nM) Alpha 2B
T1 construct: expressed in transfected cells; host or cells: NIH-3T3
T1 sequence (P18089 1-450): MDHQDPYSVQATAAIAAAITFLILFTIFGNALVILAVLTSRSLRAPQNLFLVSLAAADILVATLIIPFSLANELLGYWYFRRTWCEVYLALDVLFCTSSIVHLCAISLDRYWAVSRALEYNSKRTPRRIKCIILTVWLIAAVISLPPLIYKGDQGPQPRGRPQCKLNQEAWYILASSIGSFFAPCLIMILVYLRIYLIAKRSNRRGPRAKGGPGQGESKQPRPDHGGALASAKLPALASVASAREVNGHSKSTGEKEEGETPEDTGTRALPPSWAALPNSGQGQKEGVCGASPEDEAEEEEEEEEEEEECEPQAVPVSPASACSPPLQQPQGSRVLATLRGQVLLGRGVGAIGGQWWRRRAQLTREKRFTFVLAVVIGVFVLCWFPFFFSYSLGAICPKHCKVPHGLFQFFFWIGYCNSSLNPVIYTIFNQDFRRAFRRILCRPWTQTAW
Source text: (§1) The compounds of the invention are agonists of α2 adrenergic receptors, particularly they tend to be specific or selective agonists of α2B and/or to a lesser extent α2C adrenergic receptors, in preference over α2A adrenergic receptors. […] Al., 1995, Pharmacol. Toxicol. 76, pp. 308-311 (incorporated herein by reference) and is also described below. Another reference pertinent to this assay is Conklin et al. (1993) Nature 363:274-6, also incorporated herein by reference.
(§2) The RSAT assay measures a receptor-mediated loss of contact inhibition that results in selective proliferation of receptor-containing cells in a mixed population of confluent cells. The increase in cell number is assessed with an appropriate transfected marker gene such as β-galactosidase, the activity of which can be easily measured in a 96-well format. Receptors that activate the G protein, Gq, elicit this response. Alpha2 receptors, which normally couple to Gi, activate the RSAT response when coexpressed with a hybrid Gq protein that has a Gi receptor recognition domain, called Gq/i5^2.
(§3) NIH-3T3 cells are plated at a density of 2×10^6 cells in 15 cm dishes and maintained in Dulbecco's modified Eagle's medium supplemented with 10% calf serum. One day later, cells are cotransfected by calcium phosphate precipitation with mammalian expression plasmids encoding p-SV-β-galactosidase (5-10 μg), receptor (1-2 μg) and G protein (1-2 μg). 40 μg salmon sperm DNA may also be included in the transfection mixture. Fresh media is added on the following day and 1-2 days later, cells are harvested and frozen in 50 assay aliquots. Cells are thawed and 100 μl added to 100 μl aliquots of various concentrations of drugs in triplicate in 96-well dishes. Incubations continue 72-96 hr at 37°. After washing with phosphate-buffered saline, β-galactosidase enzyme activity is determined by adding 200 μl of the chromogenic substrate (consisting of 3.5 mM o-nitrophenyl-β-D-galactopyranoside and 0.5% nonidet P-40 in phosphate buffered saline), incubating overnight at 30 and measuring optical density at 420 nm. The absorbance is a measure of enzyme activity, which depends on cell number and reflects a receptor-mediated cell proliferation. The EC50 and maximal effect of each drug at each alpha2 receptor is determined. The efficacy or intrinsic activity is calculated as a ratio of the maximal effect of the drug to the maximal effect of a standard full agonist for each receptor subtype. Brimonidine, also called […], the chemical structure of which is shown below, is used as the standard agonist for the alpha2A, alpha2B and alpha2C receptors. [drawing 6]
(§4) The results of the RSAT assay with several exemplary compounds of the invention are disclosed in Table 3. […] NA stands for “not active” at concentrations less than 10 micromolar. As is known EC50 is the concentration at which half of a given compound's maximal activity is observed. It can be seen from the table that the compounds of the invention are specific or selective agonists of α2B and/or α2C adrenergic receptors, with no agonist like activity or only with insignificant agonist-like activity on α2A receptors.

EC50 [nM] | Structure (SMILES)
73 | OCCNC(=S)NC1C=CCCC1 (stereo not shown) [Compound 35, 1-(Cyclohex-2-enyl)-3-(2-hydroxy-ethyl)-thiourea]
17 | OCCNC(=S)NCC1CC=CCC1 (stereo not shown) [Compound 8, 1-Cyclohex-3-enylmethyl-3-(2-hydroxy-ethyl)-thiourea]
> 2000 | CCCCC1=C(CNC(=S)NCCO)CCC1 [Compound 25, 1-(2-Butyl-cyclopent-1-enylmethyl)-3-(2-hydroxy-ethyl)-thiourea]
12 | CC1=CCCCC1NC(=S)NCCO (stereo not shown) [Compound 33, 1-(2-Hydroxy-ethyl)-3-(2-methyl-cyclohex-2-enyl)-thiourea]

same assay, conditions: NIH-3T3 cells; ratio of maximal effect to that of standard full agonist brimonidine

fraction of activity of the standard (brimonidine) attained, Alpha 2B (number in parenthesis) | Structure (SMILES)
(0.58) | OCCNC(=S)NC1C=CCCC1 (stereo not shown) [Compound 35, 1-(Cyclohex-2-enyl)-3-(2-hydroxy-ethyl)-thiourea]
(0.79) | OCCNC(=S)NCC1CC=CCC1 (stereo not shown) [Compound 8, 1-Cyclohex-3-enylmethyl-3-(2-hydroxy-ethyl)-thiourea]
(0.51) | CCCCC1=C(CNC(=S)NCCO)CCC1 [Compound 25, 1-(2-Butyl-cyclopent-1-enylmethyl)-3-(2-hydroxy-ethyl)-thiourea]
(0.71) | CC1=CCCCC1NC(=S)NCCO (stereo not shown) [Compound 33, 1-(2-Hydroxy-ethyl)-3-(2-methyl-cyclohex-2-enyl)-thiourea]

molecular target: T2, alpha2C receptor (Homo sapiens, UniProt P18825); assay: Receptor Selection and Amplification Technology (RSAT) assay, alpha2C; type: cell-based; conditions: NIH-3T3 cells; NA = not active at concentrations less than 10 micromolar; read-out: RSAT EC50 (nM) Alpha 2C
T2 construct: expressed in transfected cells; host or cells: NIH-3T3
T2 sequence (P18825 1-462): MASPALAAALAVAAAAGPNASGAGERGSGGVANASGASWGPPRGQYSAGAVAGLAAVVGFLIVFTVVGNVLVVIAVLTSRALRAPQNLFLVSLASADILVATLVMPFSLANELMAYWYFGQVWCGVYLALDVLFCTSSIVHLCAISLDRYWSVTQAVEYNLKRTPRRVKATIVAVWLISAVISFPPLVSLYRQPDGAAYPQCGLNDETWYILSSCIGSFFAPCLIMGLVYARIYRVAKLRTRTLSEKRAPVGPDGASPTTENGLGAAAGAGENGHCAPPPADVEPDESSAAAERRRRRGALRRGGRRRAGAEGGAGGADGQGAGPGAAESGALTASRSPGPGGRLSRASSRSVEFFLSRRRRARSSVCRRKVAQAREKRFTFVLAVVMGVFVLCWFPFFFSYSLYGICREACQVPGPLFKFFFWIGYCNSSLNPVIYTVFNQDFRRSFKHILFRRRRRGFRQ
Source text: as §1, §2, §3, §4

EC50 [nM] | Structure (SMILES)
630 | OCCNC(=S)NC1C=CCCC1 (stereo not shown) [Compound 35, 1-(Cyclohex-2-enyl)-3-(2-hydroxy-ethyl)-thiourea]
738 | CCCCC1=C(CNC(=S)NCCO)CCC1 [Compound 25, 1-(2-Butyl-cyclopent-1-enylmethyl)-3-(2-hydroxy-ethyl)-thiourea]
251 | CC1=CCCCC1NC(=S)NCCO (stereo not shown) [Compound 33, 1-(2-Hydroxy-ethyl)-3-(2-methyl-cyclohex-2-enyl)-thiourea]

same assay, conditions: NIH-3T3 cells; ratio of maximal effect to that of standard full agonist brimonidine

fraction of activity of the standard (brimonidine) attained, Alpha 2C (number in parenthesis) | Structure (SMILES)
(0.4) | OCCNC(=S)NC1C=CCCC1 (stereo not shown) [Compound 35, 1-(Cyclohex-2-enyl)-3-(2-hydroxy-ethyl)-thiourea]
(0.69) | CCCCC1=C(CNC(=S)NCCO)CCC1 [Compound 25, 1-(2-Butyl-cyclopent-1-enylmethyl)-3-(2-hydroxy-ethyl)-thiourea]
(0.98) | CC1=CCCCC1NC(=S)NCCO (stereo not shown) [Compound 33, 1-(2-Hydroxy-ethyl)-3-(2-methyl-cyclohex-2-enyl)-thiourea]

system: rats with ligated L5 and L6 spinal nerves; assay: Alleviation of chronic pain: tactile allodynia after L5/L6 spinal nerve ligation (von Frey hairs); type: in vivo, rat; conditions: IP dose 10 μg/kg; 30 minutes after administration; ±SEM
Source text: A model for chronic pain (in particular peripheral neuropathy such as causalgia) involves the surgical ligation of the L5 (and optionally the L6) spinal nerves on one side in experimental animals. Rats recovering from the surgery gain weight and display a level of general activity similar to that of normal rats. However, these rats develop abnormalities of the foot, wherein the hindpaw is moderately everted and the toes are held together. More importantly, the hindpaw on the side affected by the surgery appears to become sensitive to pain from low-threshold mechanical stimuli, such as that producing a faint sensation of touch in a human, within about 1 week following surgery. This sensitivity to normally non-painful touch is called “tactile allodynia” and lasts for at least two months. The response includes lifting the affected hindpaw to escape from the stimulus, licking the paw and holding it in the air for many seconds. None of these responses is normally seen in the control group.
Rats are anesthetized before surgery. The surgical site is shaved and prepared either with betadine or Novacaine. Incision is made from the thoracic vertebra XIII down toward the sacrum. Muscle tissue is separated from the spinal vertebra (left side) at the L4-S2 levels. The L6 vertebra is located and the transyerse process is carefully removed with a small rongeur to expose the L4-L6 spinal nerves. The L5 and L6 spinal nerves are isolated and tightly ligated with 6-0 silk thread. The same procedure is done on the right side as a control, except no ligation of the spinal nerves is performed. A complete hemostasis is confirmed, then the wounds are sutured. A small amount of antibiotic ointment is applied to the incised area, and the rat is transferred to the recovery plastic cage under a regulated heat-temperature lamp. On the day of the experiment, at least seven days after the surgery, typically six rats per test group are administered the test drugs by intraperitoneal (i.p.) injection or oral gavage. For i.p. injection, the compounds are formulated in approximately 10 to 50% DMSO and given in a volume of 1 ml/kg body weight.
Tactile allodynia is measured prior to and 30 minutes after drug administration using von Frey hairs that are a series of fine hairs with incremental differences in stiffness. Rats are placed in a plastic cage with a wire mesh bottom and allowed to acclimate for approximately 30 minutes. The von Frey hairs are applied perpendicularly through the mesh to the mid-plantar region of the rats' hindpaw with sufficient force to cause slight buckling and held for 6-8 seconds. The applied force has been calculated to range from 0.41 to 15.1 grams. If the paw is sharply withdrawn, it is considered a positive response. A normal animal will not respond to stimuli in this range, but a surgically ligated paw will be withdrawn in response to a 1-2 gram hair. The 50% paw withdrawal threshold is determined using the method of Dixon, […]. The post-drug threshold is compared to the pre-drug threshold and the percent reversal of tactile sensitivity is calculated based on a normal threshold of 15.1 grams. The results are expressed in per cent (%) MPE, where the MPE value reflects the percentage reversal of pain threshold to that of a normal animal (100%). Table 4 below indicates results of this test with Compounds 8, 34 and 40 of the invention, administered i.p., in intrathecal and oral doses.

Structure (SMILES) | % MPE [% MPE]
OCCNC(=S)NCC1CC=CCC1 (stereo not shown) [Compound 8, 1-Cyclohex-3-enylmethyl-3-(2-hydroxy-ethyl)-thiourea] | 1.5 ± 0.9

same assay, conditions: IP dose 30 μg/kg; 30 minutes after administration; ±SEM

Structure (SMILES) | % MPE [% MPE]
OCCNC(=S)NCC1CC=CCC1 (stereo not shown) [Compound 8, 1-Cyclohex-3-enylmethyl-3-(2-hydroxy-ethyl)-thiourea] | 47 ± 8.6

same assay, conditions: IP dose 100 μg/kg; 30 minutes after administration; ±SEM

Structure (SMILES) | % MPE [% MPE]
OCCNC(=S)NCC1CC=CCC1 (stereo not shown) [Compound 8, 1-Cyclohex-3-enylmethyl-3-(2-hydroxy-ethyl)-thiourea] | 63 ± 9.1

same assay, conditions: IP dose 300 μg/kg; 30 minutes after administration; ±SEM

Structure (SMILES) | % MPE [% MPE]
OCCNC(=S)NCC1CC=CCC1 (stereo not shown) [Compound 8, 1-Cyclohex-3-enylmethyl-3-(2-hydroxy-ethyl)-thiourea] | 56 ± 6.5

same assay, conditions: IP dose 1000 μg/kg; 30 minutes after administration; ±SEM

Structure (SMILES) | % MPE [% MPE]
OCCNC(=S)NCC1CC=CCC1 (stereo not shown) [Compound 8, 1-Cyclohex-3-enylmethyl-3-(2-hydroxy-ethyl)-thiourea] | 52 ± 8.4

same assay, conditions: Intrathecal dose 30 μg; 30 minutes after administration; ±SEM

Structure (SMILES) | % MPE [% MPE]
OCCNC(=S)NCC1CC=CCC1 (stereo not shown) [Compound 8, 1-Cyclohex-3-enylmethyl-3-(2-hydroxy-ethyl)-thiourea] | 0.02 ± 0.6

same assay, conditions: Intrathecal dose 100 μg; 30 minutes after administration; ±SEM

Structure (SMILES) | % MPE [% MPE]
OCCNC(=S)NCC1CC=CCC1 (stereo not shown) [Compound 8, 1-Cyclohex-3-enylmethyl-3-(2-hydroxy-ethyl)-thiourea] | 1.3 ± 0.6

same assay, conditions: Intrathecal dose 300 μg; 30 minutes after administration; ±SEM

Structure (SMILES) | % MPE [% MPE]
OCCNC(=S)NCC1CC=CCC1 (stereo not shown) [Compound 8, 1-Cyclohex-3-enylmethyl-3-(2-hydroxy-ethyl)-thiourea] | 20 ± 5.1
